Laboratory results as given in patent US9314498B2, “Bacteriocin derived from Lactobacillus rhamnosus” (priority 2011, dated 2016).

Experiments:
Type in all cases: cell-based
[1] = test system: Streptococcus mutans Ingbritt strain; experiment: Antimicrobial activity against Streptococcus mutans Ingbritt; details: 0 to 100 μM, FIG. 5
[2] = test system: Streptococcus sobrinus B-13 strain; experiment: Antimicrobial activity against Streptococcus sobrinus B-13; details: tested 0 to 100 μM
Experimental: [The procedure below names another organism; the source lists this organism under the same test.] The Candida albicans GDH18 strain was precultured using SD medium (Difco) at 37° C. for 24 hours under aerobic conditions. The Streptococcus sobrinus B-13 strain, Streptococcus mutans NCTC10449 strain and Streptococcus mutans Ingbritt strain were precultured using TSB medium (Difco) supplemented with 5% yeast extract (Difco) at 37° C. for 24 hours under aerobic conditions. The Porphyromonas gingivalis Hudoi001 strain and Aggregatibacter actinomycetemcomitans Hudoe001 strain were precultured using BHI medium (Difco) supplemented with hemin (5 mg/L) and vitamin K3 (1 mg/L) at 37° C. for 96 hours under anaerobic conditions with Anaero Pack System (Mitsubishi Gas Chemical Company, Inc.).
After the culture, the cells of the Candida, cariogenic bacteria and periodontal disease bacteria were collected by centrifugation at 1000×g, and washed twice with 1 mM phosphate buffer (pH 6.8). The cells were then suspended such that the final concentration was 1×10^8 cfu/ml or 1×10^7 cells/m. For suspension of the Streptococcus strains, ultrasonic treatment was also carried out.
Evaluation of the antimicrobial activity was carried out by the method by Edgerton and others (1998) with some modifications. With 20 mL of 1 mM phosphate buffer containing 0 to 25 μM Kog1 or Kog2 synthesized in Example 1, 20 μl of the suspension of the Candida albicans GDH18 strain cultured and prepared by the method described in the above Preparation Example was mixed, and the resulting mixture was incubated at 37° C. for 90 minutes with shaking. As a control, 20 ml of 1 mM phosphate buffer alone was used. The reaction was stopped by addition of 360 ml of YNB medium (Difco), and the number of colonies formed (colony forming units; CFUs) was counted together with the number of colonies in the control, to determine the percentage of living bacterial cells. That is, the equation of: (CFUs of suspension containing Kog1 or Kog2/CFU ml^−1 of control suspension)×100 was used to calculate the percentage. […]

[3] = test system: Candida albicans MYA274 strain; experiment: Boiling experiment: antimicrobial activity (ATP) against Candida albicans MYA274; details: concluded from supernatant boiled at 100° C. for 20 minutes; peptides not directly used
Experimental: In Example 9, antimicrobial activity against the Candida albicans MYA274 strain was investigated. The Candida albicans MYA274 strain was precultured in Sabouraud dextrose broth (Difco) at 37° C. for 24 hours, and then washed twice with MQ water, followed by being prepared such that OD600 is 0.3 (1.0×10^7 cells/ml).
In Example 9, the bacteriocin Kog1 or Kog2, or the Lactobacillus rhamnosus KO1 strain or KO3 strain, was not directly used. Instead, a lactic acid bacterium medium containing the Lactobacillus rhamnosus KO3 strain, 8020 yogurt (liquid type), was used in the experiment More specifically, the 8020 yogurt (liquid type) was prepared by adding the Lactobacillus rhamnosus KO3 strain at a concentration of 1% and YF-L811 starter at a concentration of 1% to the 15% skim milk+3% glucose medium, and then performing culture at 35° C. for 2 days.
Such 8020 yogurt (liquid type) was centrifuged to obtain a supernatant from which the lactic acid bacterium was removed (hereinafter referred to as Supernatant B). In the experiment, Supernatant B and a sample prepared by boiling Supernatant B at 100° C. for 20 minutes (hereinafter referred to as Supernatant Boil) were used. […]
In order to study changes in the antimicrobial activity by boiling, the following 3 kinds of samples were placed in a 24-well plate, and the value of ATP (pmol/L) after 24 hours of incubation at 37° C. was measured. […]

[4] = test system: Porphyromonas gingivalis LPS (P.g-LPS) on RAW264.7 macrophage-like cells, TNF-α; experiment: LPS inactivation: TNF-α secretion of RAW264.7 cells (ELISA)
Experimental: As a medium, RPMI 1640 medium supplemented with 10% FBS (Fetal Bovine Serum) (Biological industries, Haemek, Israel), 1% antibiotic and 1% L-glutamine was used. In each well of a 24-well plate, 400 μl of the medium was placed, and 100,000 cells/well of mouse-derived RAW264.7 macrophage-like cells were inoculated thereto.
The bacteriocin Kog1 or Kog2, which was the same as in Example 1, was incubated in an Eppendorf tube under each of the following 4 conditions together with Porphyromonas gingivalis LPS (manufactured by InvivoGen) (hereinafter referred to as P.g-LPS) and the same medium as described above, at 37° C. under a gas phase of 5% CO2 for 2 hours: (1) 100 ng/ml P.g-LPS positive control; (2) 100 ng/ml P.g-LPS+5 μM Kog1 or Kog2; (3) 100 ng/ml P.g-LPS+10 μM Kog1 or Kog2; (4) 100 ng/ml P.g-LPS+20 μM Kog1 or Kog2.
The above-described medium placed in each well of the 24-well plate was removed using a pipetteman, and the medium in the Eppendorf tube for each of the 4 conditions described above was placed in the plate, followed by culturing the cells in the well plate at 37° C. under a gas phase of 5% CO2 for 12 hours. Thereafter, the culture supernatant was collected, and the amount of a chemokine ccl2 or the amount of a cytokine TNF-α secreted into the medium was quantified by the ELISA method by measuring the absorbance at 450 nm using a microplate reader. Since both ccl2 and TNF-α are involved in formation of inflammation, analysis of the relationship between the endotoxin LPS and the bacteriocins Kog1 and Kog2 is possible.

Substance: Kog2: peptide having the amino acid sequence shown in SEQ ID NO: 2, bacteriocin of Lactobacillus rhamnosus, synthesized by the tea-bag method (MTKVRSSRLRPLTLRLLSAPARAQFLTIACRAILRYDLINS; listed as Lactobacillus rhamnosus)
- antimicrobial activity compared to the other antimicrobial peptides (hBD2, lysozyme) [1]: capable of killing a larger amount of Streptococcus mutans even at relatively low peptide concentration
- peptide concentration at which 100% of the strain was killed [2]: 0.39 µM
- heat resistance (antimicrobial activity after heating) [3]: still maintain antimicrobial activity after heating
- amount of the cytokine TNF-α secreted ([4]; 100 ng/ml P.g-LPS + Kog2 above a certain level, as amount added increases): decreases
- amount of the cytokine TNF-α secreted ([4]; 100 ng/ml P.g-LPS + small amount of Kog2 (5 μM)): increases
